A short description of series [1]: Intravenous toxicity in rats (BUN, ALT/AST, mortality). It is filed as in vivo. The settings on record: IV, 2, 10, and 17.5 mg/kg (highest dose tested). As for the experimental part:
>100 mg of C2′epiAmB was prepared, formulated it as the corresponding deoxycholate complex, and evaluated this derivative head-to-head with AmB-deoxycholate for toxicity and efficacy in animal models. […] Alternatively, no elevations in BUN or ALT/AST and no mortality when rats were treated with IV injections of C2′epiAmB at doses of 2, 10, and 17.5 mg/kg (the highest dose that was tested) was observed.

The test system of a further series is human red blood cells. The series can be described thus: Toxicity to human red blood cells. The class given is cell-based.
In series [2] the test system is Candida and Aspergillus clinical isolates. The series is described as follows: In vitro antifungal activity, clinical isolates (Evotec). It is filed as cell-based. The settings on record: many Candida and several Aspergillus strains. The text has this: (§1) In vitro antifungal activity of C2′epiAmB was compared with that of AmB against an extensive series of Candida and Aspergillus clinical isolates (FIG. 8A) at Evotec (Oxfordshire, UK). […] C2′epiAmB was also sent to the US national Fungus Testing Laboratory at UT-San Antonio for antifungal testing against an extended panel of especially challenging 40 Aspergillus clinical isolates, including azole-resistant A. fumigatus, A. flavus, and A. terreus (FIG. 8B). […] Recently, Steinbach and Burke directly compared the activity of AmB, AmBisome*, caspofungin, voriconazole, and C2′epiAmB against an even broader panel of clinically relevant invasive molds (FIG. 8C).

The test system of another series is A. fumigatus 1163. The series can be described thus: Minimum Inhibition Concentration (MIC), antifungal activity. The class given is cell-based.
The subject of the next series is C. glabrata. Described as above. It is filed as cell-based.
For the next series, the system named is A. fumigatus. The series can be described thus: In vitro antifungal activity, A. fumigatus strains (Evotec). The class given is cell-based.
Description: as §1

The test system of series [3] is C. albicans. The series can be described thus: MIC with and without pre-complexation with ergosterol. As to conditions: sponge pre-complexed with ergosterol. It is filed as cell-based. The source says: Anderson, T. M. et al., Nat Chem Biol 2014, 10 (5), 400-6. […] Davis, S. A., et al., Nat Chem Biol 2015, 11 (7), 481-7. To test whether C2′epiAmB primarily kills cells via the same sterol sponge mechanism, the C2′epiAmB sponge was similarly pre-complexed with ergosterol (FIG. 9). […] Thus, C2′epiAmB similarly kills yeast primarily via sterol binding, and, by extension, the new compounds targeted in this application are expected to have a similar barrier to fungal resistance that has been observed for the past 50+ years with AmB.

The subject of another series is yeast. The series can be described thus: Activity against yeast / fungal cell killing. The class given is cell-based.
In a further series the test system is primary hREC. The series is described as follows: Toxicity to primary human renal epithelial cells. The class given is cell-based.
Another series deals with C. krusei. The series can be described thus: Minimum Inhibition Concentration (MIC), antifungal activity. The class given is cell-based.
The subject of series [4] is C. albicans. The series is described as follows: Murine model of invasive candidiasis. It is filed as in vivo, Neutropenic ICR/Swiss mice. As to conditions: single IP injection. The source says:
Andes, D. et al., Antimicrobial agents and chemotherapy 2001, 45 (3), 922-6. In fact, the PD parameter that best correlates with outcome is Cmax−/MIC. The same was subsequently observed in a pulmonary model of invasive aspergillosis. Wiederhold, N. P. et al., Antimicrobial agents and chemotherapy 2006, 50 (2), 469-73.

The test system of series [5] is clinically relevant invasive molds. The series can be described thus: Antifungal activity, broader panel of clinically relevant invasive molds. It is filed as cell-based. The settings on record: many strains, including a pan-azole resistant strain (F14196).
Description: as §1

Series [6] has as its system 40 Aspergillus clinical isolates, including azole-resistant A. fumigatus, A. flavus, and A. terreus. The series can be described thus: Antifungal testing, extended panel of 40 Aspergillus clinical isolates (Fungus Testing Laboratory, UT-San Antonio). The class given is cell-based.
Description: as §1

The test system of another series is C. tropicalis. The series can be described thus: Minimum Inhibition Concentration (MIC), antifungal activity. The class given is cell-based.
The test system of the next series is A. fumigatus 91. The series is described as above. It is filed as cell-based.
In series [7] the test system is C. albicans. Described as above. It is filed as cell-based.
Series [8] is described as follows: Cmax after IV administration. The class given is in vivo, rats. As to conditions: C2′epiAmB at 17.5 mg/kg vs AmB at 1 mg/kg.
Series [9] is described as follows: Isothermal titration calorimetry (ITC) sterol binding. The settings on record: within the detection limits of ITC. The source says:
This key discovery opened a path to the rational development of a non-toxic AmB variant. To probe its predicted role in sterol binding, the hydroxyl group was synthetically deleted at the C2′ position on the mycosamine appendage. […] Consistent with the sterol sponge model, this derivative retained good activity against yeast but, most importantly, was nontoxic to human red blood cells and primary (hREC) (FIG. 2B).
A practical 11-step synthesis of C2′epiAmB using a frontier site-selective acylation method was developed (FIG. 4). Wilcock, B. C. et al., Nat Chem 2012, 4 (12), 996-1003; Uno, B. E. A synthesis enabled understanding of Amphotericin B leading to derivatives with improved therapeutic indices. University of Illinois at Urbana-Champaign, 2014. The sterol binding and cell killing activities was then determined.

In a further series the test system is A. fumigatus 1100. The series is described as follows: Minimum Inhibition Concentration (MIC), antifungal activity. It is filed as cell-based.

Structures are written as SMILES. Converted amounts (≈) assume the structure as drawn. Read-outs that look alike come from different tables or passages of the source.

In the case of `C[C@@H]1[C@H](O)[C@@H](C)/C=C/C=C/C=C/C=C/C=C/C=C/C=C/[C@H](O[C@@H]2O[C@H](C)[C@@H](O)[C@H](N)[C@H]2O)C[C@@H]2O[C@](O)(C[C@@H](O)C[C@@H](O)[C@H](O)CC[C@@H](O)C[C@@H](O)CC(=O)O[C@H]1C)C[C@H](O)[C@H]2C(=O)O` [C2′epiAmB], the ALT/AST result in [1] is reported as “no elevations”. For the same compound, the “Blood Urea Nitrogen (BUN)” value in series [1] is “no elevations”. Besides, the mortality entry in [1] is reported as “no mortality”. Moreover, in the series on human red blood cells, the “toxicity to human red blood cells” value is given as “non-toxic”. Also, the “in vitro antifungal activity” value in series [2] was “good activity”. Further, the MIC was above 64 µM in the series with A. fumigatus 1163; 8 µM (≈ 7.39 µg/mL) with C. glabrata; 4 µM (≈ 3.7 µg/mL) in the series on C. krusei; 4 µM (≈ 3.7 µg/mL) against C. tropicalis; above 64 µM against A. fumigatus 91; 4 µM (≈ 3.7 µg/mL) with C. albicans [7]. In addition, the MIC against A. fumigatus 1100 was found to be 32 µM (≈ 29.6 µg/mL). Besides, the “potency relative to AmB (less potent)” value in the series with A. fumigatus (A. fumigatus strain AF91) is reported as above 32 times; in the series on A. fumigatus (A. fumigatus strains AF293, A1163, and ATC204305), 4 fold; in [6] (range over 40 Aspergillus clinical isolates), 2-16 times. Moreover, in the series with C. albicans [3], the “change in potency upon ergosterol pre-complexation” value is given as “same reduction in potency”. For the same compound, the “activity against yeast / fungal cells” value with yeast is “kill fungal”. Besides, the “toxicity to primary hREC” value in the series with primary hREC was “non-toxic”. Also, the fungal burden entry in the series with C. albicans [4] (16 mg/kg dose) was “outstanding reductions in fungal burden”. Also, in the series on C. albicans [4] (deoxycholate complex, 1, 4, 8, or 16 mg/kg), the efficacy result is recorded as “dose-dependent efficacy”. Moreover, the antifungal potency result in series [5] is “good antifungal potency”. Moreover, the “average potency relative to AmB (less potent)” value in series [6] (average across all 40 strains) is listed as 5.6 fold. The “Cmax relative to Cmax for AmB at 1 mg/kg” value in [8] is listed as above 16 fold. Besides, the “cholesterol binding by ITC” value in [9] is on record as “not (detectably) cholesterol”. In addition, the “ergosterol binding by ITC” value in series [9] is on record as “bind ergosterol”.

Take `COC(=O)[C@H]1[C@@H]2C[C@@H](O[C@@H]3O[C@H](C)[C@@H](O)[C@H](N)[C@H]3O)/C=C/C=C/C=C/C=C/C=C/C=C/C=C/[C@H](C)[C@@H](O)[C@@H](C)[C@H](C)OC(=O)C[C@H](O)C[C@H](O)CC[C@@H](O)[C@H](O)C[C@H](O)C[C@](O)(C[C@@H]1O)O2` [C2'epiAmBME]: the MIC is 4 µM (≈ 3.75 µg/mL) in the series with A. fumigatus 1163; 4 µM (≈ 3.75 µg/mL) against C. glabrata; 2 µM (≈ 1.88 µg/mL) in the series with C. krusei; 2 µM (≈ 1.88 µg/mL) against C. tropicalis; 4 µM (≈ 3.75 µg/mL) against A. fumigatus 91; 1 µM (≈ 0.938 µg/mL) against C. albicans [7]. Besides, the MIC against A. fumigatus 1100 is reported as 4 µM (≈ 3.75 µg/mL).

Regarding `C[C@@H]1[C@H](O)[C@@H](C)/C=C/C=C/C=C/C=C/C=C/C=C/C=C/[C@H](OC2O[C@H](C)[C@@H](O)[C@H](N)[C@@H]2O)CC2O[C@](O)(CC(O)CC(O)[C@H](O)CCC(O)CC(O)CC(=O)O[C@H]1C)CC(O)[C@H]2C(=O)O` (stereo partly shown) [AmB, Amphotericin B], the MIC against A. fumigatus 1163 (Aspergillus fumigatus) came to 2 µM (≈ 1.85 µg/mL); against C. glabrata (Nakaseomyces glabratus), 0.5 µM (≈ 0.462 µg/mL); against C. krusei (Pichia kudriavzevii), 2 µM (≈ 1.85 µg/mL); against C. tropicalis (Candida tropicalis) it was 2 µM (≈ 1.85 µg/mL); in the series on A. fumigatus 91 (Aspergillus fumigatus), 2 µM (≈ 1.85 µg/mL); in the series with C. albicans [7] (Candida albicans) it was 0.5 µM (≈ 0.462 µg/mL). In addition, in the series with A. fumigatus 1100 (Aspergillus fumigatus), the MIC was 2 µM (≈ 1.85 µg/mL). The “change in potency upon ergosterol pre-complexation” value with C. albicans [3] is listed as “same reduction in potency”.

The record behind these values is patent US20230000891A1, “HYBRID AMPHOTERICIN B DERIVATIVES WITH REDUCED TOXICITY” (The Board of Trustees of the University of Illinois, priority 2019, published 2023).
